In patent publication US20160264570A1, “METHOD OF BLOCKING TRANSMISSION OF MALARIAL PARASITE” (THE UNITED STATES OF AMERICA, AS REPRESENTED BY THE …, priority 2013, published 2016):
Where two headings read alike, the source gives them in different places.

How the values were obtained:
[1] = system: Asexual parasites of P. falciparum strain 3D7; test: SYBR Green viability assay on asexual parasites; format: cell-based, Plasmodium falciparum; settings: for EC50: read-out: Activity against asexual parasites EC50
[2] = system: P. falciparum strain 3D7 gametocytes; test: alamarBlue gametocyte viability assay, strain 3D7; settings: for EC50: read-out: Gametocytocidal activity EC50
[3] = system: P. falciparum strain HB3 gametocytes; test: alamarBlue gametocyte viability assay, strain HB3; settings: Plasmodium falciparum, HB3, read-out: HB3-IC50, Table 3; 11 concentrations, 1:3 dilution, three times
[4] = Plasmodium falciparum, 3D7, read-out: 3D7-IC50

## O=c1ccc2cnc3ccc(-c4cccc(C(F)(F)F)c4)cc3c2n1-c1cccc(C(F)(F)F)c1
[1]; Table 6
  EC50: 4.2 µM
[2]; Table 6
  EC50: 3.38 µM

## O=c1ccc2cnc3ccc(Br)cc3c2n1-c1cccc(C(F)(F)F)c1
[1]; Table 6
  EC50: 5.58 µM
[2]; Table 6
  EC50: 4.95 µM

## Nc1cccc(-c2ccc3ncc4ccc(=O)n(-c5cccc(C(F)(F)F)c5)c4c3c2)c1
[1]; Table 6
  EC50: 0.12 µM
[2]; Table 6
  EC50: 0.103 µM

## CN(C)c1cccc(-c2ccc3ncc4ccc(=O)n(-c5cccc(C(F)(F)F)c5)c4c3c2)c1
[1]; Table 6
  EC50: 3.25 µM
[2]; Table 6
  EC50: 3.29 µM

## C=Cc1ccc2ncc3ccc(=O)n(-c4cccc(C(F)(F)F)c4)c3c2c1
[1]; Table 6
  EC50: 3.24 µM
[2]; Table 6
  EC50: 4.9 µM

## NC(=O)c1ccc(-c2ccc3ncc4ccc(=O)n(-c5cccc(C(F)(F)F)c5)c4c3c2)cc1
[1]; Table 6
  EC50: 1.06 µM
[2]; Table 6
  EC50: 1.27 µM

## N#Cc1cccc(-c2ccc3ncc4ccc(=O)n(-c5cccc(C(F)(F)F)c5)c4c3c2)c1
[1]; Table 6
  EC50: 0.283 µM
[2]; Table 6
  EC50: 0.526 µM

## O=c1ccc2cnc3ccc(-c4ccc5sccc5c4)cc3c2n1-c1cccc(C(F)(F)F)c1
[1]; Table 6
  EC50: 1.64 µM
[2]; Table 6
  EC50: 3.21 µM

## CS(=O)(=O)c1ccc(-c2ccc3ncc4ccc(=O)n(-c5cccc(C(F)(F)F)c5)c4c3c2)cc1
[1]; Table 6
  EC50: 0.266 µM
[2]; Table 6
  EC50: 0.491 µM

## O=c1ccc2cnc3ccc(-c4ccc5nonc5c4)cc3c2n1-c1cccc(C(F)(F)F)c1
[1]; Table 6
  EC50: 1.73 µM
[2]; Table 6
  EC50: 4.52 µM

## O=c1ccc2cnc3ccc(-c4ccc(N5CCCCC5)nc4)cc3c2n1-c1cccc(C(F)(F)F)c1
[1]; Table 6
  EC50: 4.91 µM
[2]; Table 6
  EC50: 8.09 µM

## Cc1ccc(-c2ccc3ncc4ccc(=O)n(-c5cccc(C(F)(F)F)c5)c4c3c2)cn1
[1]; Table 6
  EC50: 0.033 µM
[2]; Table 6
  EC50: 0.065 µM

## NS(=O)(=O)c1ccc(-c2ccc3ncc4ccc(=O)n(-c5cccc(C(F)(F)F)c5)c4c3c2)cc1
[1]; Table 6
  EC50: 0.384 µM
[2]; Table 6
  EC50: 0.303 µM

## CN(C)C(=O)c1ccc(-c2ccc3ncc4ccc(=O)n(-c5cccc(C(F)(F)F)c5)c4c3c2)cc1
[1]; Table 6
  EC50: 2.08 µM
[2]; Table 6
  EC50: 1.99 µM

## O=c1ccc2cnc3ccc(-c4ccc(-c5ccccc5)cc4)cc3c2n1-c1cccc(C(F)(F)F)c1
[1]; Table 6
  EC50: 15 µM
[2]; Table 6
  EC50: 19.3 µM

## Cc1ccc(-c2ccc3ncc4ccc(=O)n(-c5cccc(C(F)(F)F)c5)c4c3c2)cc1
[1]; Table 6
  EC50: 0.372 µM
[2]; Table 6
  EC50: 0.794 µM

## O=c1ccc2cnc3ccc(-c4cncc(Cl)c4)cc3c2n1-c1cccc(C(F)(F)F)c1
[1]; Table 6
  EC50: 3.59 µM
[2]; Table 6
  EC50: 8.79 µM

## O=c1ccc2cnc3ccc(-c4cccc(N5CCCC5)c4)cc3c2n1-c1cccc(C(F)(F)F)c1
[1]; Table 6
  EC50: 13.3 µM
[2]; Table 6
  EC50: 16.1 µM

## O=C(c1ccc(-c2ccc3ncc4ccc(=O)n(-c5cccc(C(F)(F)F)c5)c4c3c2)cc1)N1CCNCC1
[1]; Table 6
  EC50: 7.87 µM
[2]; Table 6
  EC50: 5.57 µM

## O=C(c1ccc(-c2ccc3ncc4ccc(=O)n(-c5cccc(C(F)(F)F)c5)c4c3c2)cc1)N1CCOCC1
[1]; Table 6
  EC50: 12.1 µM
[2]; Table 6
  EC50: 22.4 µM

## O=c1ccc2cnc3ccc(-c4ccc(O)nc4)cc3c2n1-c1cccc(C(F)(F)F)c1
[1]; Table 6
  EC50: 0.187 µM
[2]; Table 6
  EC50: 0.262 µM

## NS(=O)(=O)c1cccc(-c2ccc3ncc4ccc(=O)n(-c5cccc(C(F)(F)F)c5)c4c3c2)c1
[1]; Table 6
  EC50: 0.128 µM
[2]; Table 6
  EC50: 0.342 µM

## O=C1NCCc2cc(-c3ccc4ncc5ccc(=O)n(-c6cccc(C(F)(F)F)c6)c5c4c3)ccc21
[1]; Table 6
  EC50: 1.13 µM
[2]; Table 6
  EC50: 3.17 µM

## O=C1CCc2cc(-c3ccc4ncc5ccc(=O)n(-c6cccc(C(F)(F)F)c6)c5c4c3)ccc2N1
[1]; Table 6
  EC50: 1.13 µM
[2]; Table 6
  EC50: 3.17 µM

## NCc1ccc2ncc3ccc(=O)n(-c4cccc(C(F)(F)F)c4)c3c2c1
[1]; Table 6
  EC50: 0.163 µM
[2]; Table 6
  EC50: 0.281 µM

## CN(C)Cc1ccc2ncc3ccc(=O)n(-c4cccc(C(F)(F)F)c4)c3c2c1
[1]; Table 6
  EC50: 0.242 µM
[2]; Table 6
  EC50: 0.666 µM

## CNC(=O)c1ccc(-c2ccc3ncc4ccc(=O)n(-c5cccc(C(F)(F)F)c5)c4c3c2)cc1
[1]; Table 6
  EC50: 0.017 µM
[2]; Table 6
  EC50: 0.061 µM

## O=C1Cc2cc(-c3ccc4ncc5ccc(=O)n(-c6cccc(C(F)(F)F)c6)c5c4c3)ccc2N1
[1]; Table 6
  EC50: 0.019 µM
[2]; Table 6
  EC50: 0.051 µM

## O=C1NCc2cc(-c3ccc4ncc5ccc(=O)n(-c6cccc(C(F)(F)F)c6)c5c4c3)ccc21
[1]; Table 6
  EC50: 0.517 µM
[2]; Table 6
  EC50: 1.79 µM

## CNc1ccc2oc(C[C@H]3O[C@@]4(CC[C@H]3C)O[C@H]([C@H](C)C(=O)c3ccc[nH]3)[C@H](C)C[C@H]4C)nc2c1C(=O)O [Calcimycin]
[2]; [4]
  IC50: 2.64 µM
[3]
  IC50: 5.9 µM

## CCN(CC)Cc1nccn1-c1ccc([N+](=O)[O-])cc1C(=O)c1ccccc1Cl [Nizofenone]
[2]; [4]
  IC50: 23.5 µM
[3]
  IC50: 14.8 µM

## CCC(=O)N1CCN(c2ccc(-n3c(=O)ccc4cnc5ccc(-c6cnc7ccccc7c6)cc5c43)cc2C(F)(F)F)CC1 [Torin 1, reference compound]
[1]
  times less potent than Torin 2 against asexual parasites: 78 times
[1]; read-out: IC50 in viability assay using asexual parasites
  IC50: 0.215 µM
[2]; read-out: IC50 against 3D7 gametocytes
  IC50: 1.6 µM

## Nc1ccc(-c2ccc3ncc4ccc(=O)n(-c5cccc(C(F)(F)F)c5)c4c3c2)cn1 [drawing 333]
[1]; Table 6
  EC50: 0.006 µM
[2]; Table 6
  EC50: 0.018 µM

## Cn1c(=O)n(-c2cccc(C(F)(F)F)c2)c2c3cc(-c4cccc(C#N)c4)ccc3ncc21 [drawing 455]
[1]; Table 7
  EC50: 0.546 µM
[2]; Table 7
  EC50: 2.82 µM

## Cn1c(=O)n(-c2cccc(C(F)(F)F)c2)c2c3cc(-c4cccc(C#N)c4)ccc3ncc21 [drawing 462]
[1]; Table 7
  EC50: 0.059 µM
[2]; Table 7
  EC50: 0.314 µM
